# In patent publication US10562869B2, “Oxadiazole compounds” (REMYND NV, priority 2014, dated 2020):
# Test system: M17_3TAU(P301L) cells
# Assay: Retinoic acid-induced cytotoxicity (LDH) in TAU-P301L expressing M17_3TAU(P301L) neuroblastoma cells
# Format: cell-based
# Details: Homo sapiens, Neuroblastoma cell, 168 h; toxicity inhibition (LDH) in M17_3TAU(P301L) cells challenged with retinoic acid, 7 days
# Text: A TAU expression plasmid was constructed by sub-cloning the cDNA encoding for human TAU-P301L protein, wherein proline at position 301 was substituted by a leucine residue, into mammalian expression vector pcDNA3.1 resulting in the plasmid pcDNA3.1-TAUP301L. Plasmid pcDNA3.1-TAU P301L was transfected into human neuroblastoma cells (BE-M17; ATCC No. CRL-2267™) using lipofectamine reagent and subsequently, independent clonal cell lines with the plasmids stably integrated into the genome were selected by antibiotic resistance selection (Geneticin (G418)), resulting in cell line M17_3TAUP301L. Expression of the TAUP301L gene in the M17_3TAUP301L cells was confirmed by Western blot analysis.
# M17_3TAU(P301L) cells were treated chronically with retinoic acid (RA) in low serum conditions to induce Alzheimer's disease-like intracellular signaling deregulation leading to increased TAU levels and subsequent cell death. Cytotoxicity of cells was measured by quantification of lactate dehydrogenase (LDH) levels. In dead cells LDH leaked out of the cells into the medium due to a loss of plasma-membrane integrity.
# 3 days preceding the experiment, a pre-culture of M17_3TAU(P301L) cells was prepared, starting from a stock culture, at a density of 50.000-100.000 cells/cm^2 in culture medium (Optimem Reduced Serum with phenol red (Invitrogen, Cat. 31985-047)) supplemented with 10% fetal calf serum (FCS), 1 mM sodium pyruvate, 1×non-essential amino acids (NEAA), 500 μg/ml G418 and 0.5×(ABAM). At the day of the experiment these precultures were diluted to ˜0.1·10^6 cells/ml in detection medium (Optimem Reduced Serum without phenol red (Gibco, Cat.11058-021) supplemented with 1% fetal calf serum (FCS), 1 mM sodium pyruvate, 1×non-essential amino acids (NEAA), 500 μg/ml G418 and 0.5×ABAM) and 60 μL of this suspension was dispensed per well into a 96-well microtiter plate. After 3 hours of incubation at 37° C./5% CO2 an equal volume of detection medium (without FCS) containing 3.75 μM RA was added and subsequently incubated for 7 days at 37° C./5% CO2. Then LDH activity was determined using the Promega Cytotox 96 Non-Radioactive cytotoxicity assay (Cat. G1780), according to the manufacturer's instructions. Cytotoxicity was defined as the ratio of LDH relative the total LDH in the cells and supernatant.
# The assay described above using the M17_3TAU(P301L) cell line allowed to screen compounds for their ability to decrease cytotoxicity in RA-challenged cells. Compounds of the invention were tested for their ability to decrease toxicity at different concentrations, ranging from low non-effective concentrations to high potent concentrations. Afterwards, the dose-dependent inhibition curve was used to calculate their EC50. A compound was considered to be active in this test when it inhibited toxicity by more than 20% relative to untreated M17_3TAU(P301L) cells at a concentration of 10 μM or lower.
row,SMILES,EC50 [nM]
1,"COc1cc(CCN2CCN(c3nc(-c4cccc(Cl)c4)no3)CC2)ccn1 [Cmpd025, 3-(3-Chlorophenyl)-5-(4-(2-(2-methoxypyridin-4-yl)ethyl)piperazin-1-yl)-1,2,4-oxadiazole]",14
2,"Fc1ccccc1CN1CCN(c2nc(Cc3ccc(Cl)cc3)no2)CC1 [Cmpd061, 3-(4-Chlorobenzyl)-5-(4-(2-fluorobenzyl)piperazin-1-yl)-1,2,4-oxadiazole]",685
3,"Cc1ccccc1CN1CCN(c2nc(C3(c4ccc(F)cc4)CC3)no2)CC1 [Cmpd108, 3-(1-(4-Fluorophenyl)cyclopropyl)-5-(4-(2-methylbenzyl)piperazin-1-yl)-1,2,4-oxadiazole]",758
4,"COc1cc(CCN2CCN(c3nc(C4C[C@@H]5CC[C@H]4C5)no3)CC2)ccn1 (stereo partly drawn) [Cmpd187, 3-((1S,4R)-bicyclo[2.2.1]heptan-2-yl)-5-(4-(2-(2-methoxypyridin-4-yl)ethyl)piperazin-1-yl)-1,2,4-oxadiazole]",47
5,"Clc1ccc(-c2noc(N3CCN(CCc4ccccc4)CC3)n2)cc1 [Cmpd020, 3-(4-Chlorophenyl)-5-(4-phenethylpiperazin-1-yl)-1,2,4-oxadiazole]",10
6,"CCC(c1ccccc1)c1noc(N2CCN(Cc3ccc4c(c3)OCO4)CC2)n1 (stereo not drawn) [Cmpd047, 5-(4-(Benzo[d][1,3]dioxol-5-ylmethyl)piperazin-1-yl)-3-(1-phenylpropyl)-1,2,4-oxadiazole]",63
7,"COc1cc(CCN2CCN(c3nc(-c4cccc(F)c4)no3)CC2)ccn1 [Cmpd032, 3-(3-Fluorophenyl)-5-(4-(2-(2-methoxypyridin-4-yl)ethyl)piperazin-1-yl)-1,2,4-oxadiazole]",8
8,"COc1cccc(CCN2CCN(c3nc(C(C)(C)c4ccc(F)cc4)no3)CC2)c1 [Cmpd118, 3-(2-(4-Fluorophenyl)propan-2-yl)-5-(4-(3-methoxyphenethyl)piperazin-1-yl)-1,2,4-oxadiazole]",105
9,"CC(C)CCN1CCN(c2nc(-c3cccc(F)c3)no2)CC1 [Cmpd034, 3-(3-Fluorophenyl)-5-(4-isopentylpiperazin-1-yl)-1,2,4-oxadiazole]",2
10,"CCCN1CCN(c2nc(Cc3ccc(Cl)cc3)no2)CC1 [Cmpd066, 1-[3-(4-Chloro-benzyl)-[1,2,4]oxadiazol-5-yl]-4-propyl-piperazine]",145
11,"FC(F)(F)CCc1noc(N2CCN(CCN3CCOCC3)CC2)n1 [Cmpd180, 4-(2-(4-(3-(3,3,3-Trifluoropropyl)-1,2,4-oxadiazol-5-yl)piperazin-1-yl)ethyl)morpholine]",222
12,"Cc1ccccc1CN1CCN(c2nc(-c3cccc(Cl)c3)no2)CC1 [Cmpd026, 3-(3-Chlorophenyl)-5-(4-(2-methylbenzyl)piperazin-1-yl)-1,2,4-oxadiazole]",88
13,"Clc1ccccc1CN1CCN(c2nc(-c3ccccc3)no2)CC1 [Cmpd001, 5-(4-(2-Chlorobenzyl)piperazin-1-yl)-3-phenyl-1,2,4-oxadiazole]",27
14,"Clc1ccc(CCN2CCN(c3nc(-c4cccc(Cl)c4)no3)CC2)cc1 [Cmpd024, 5-(4-(4-Chlorophenethyl)piperazin-1-yl)-3-(3-chlorophenyl)-1,2,4-oxadiazole]",119
15,"Clc1ccc(Cc2noc(N3CCN(Cc4ccc5c(c4)OCO5)CC3)n2)cc1 [Cmpd055, 1-Benzo[1,3]dioxol-5-ylmethyl-4-[3-(4-chloro-benzyl)-[1,2,4]oxadiazol-5-yl]-piperazine]",452
16,"FC(F)(F)Cc1noc(N2CCN(CCc3ccc(Cl)cc3)CC2)n1 [Cmpd164, 5-(4-(4-Chlorophenethyl)piperazin-1-yl)-3-(2,2,2-trifluoroethyl)-1,2,4-oxadiazole]",306
17,"COc1cccc(CCN2CCN(c3nc(C4(c5ccccc5)CC4)no3)CC2)c1 [Cmpd125, 5-(4-(3-Methoxyphenethyl)piperazin-1-yl)-3-(1-phenylcyclopropyl)-1,2,4-oxadiazole]",103

row,SMILES,EC50 [nM]
1,"CC(C)CCN1CCN(c2nc(Cc3ccc(Cl)cc3)no2)CC1 [Cmpd067, 3-(4-Chlorobenzyl)-5-(4-isopentylpiperazin-1-yl)-1,2,4-oxadiazole]",22
2,"Cc1ccccc1CN1CCN(c2nc(Cc3ccc(F)c(F)c3)no2)CC1 [Cmpd104, 1-[3-(3,4-Difluoro-benzyl)-[1,2,4]oxadiazol-5-yl]-4-(2-methyl-benzyl)-piperazine]",37
3,"COc1cc(CCN2CCN(c3nc(-c4ccccc4)no3)CC2)ccn1 [Cmpd004, 5-(4-(2-(2-Methoxypyridin-4-yl)ethyl)piperazin-1-yl)-3-phenyl-1,2,4-oxadiazole]",36
4,"Clc1ccc(Cc2noc(N3CCN(Cc4ccccc4Cl)CC3)n2)cc1 [Cmpd062, 1-(2-Chloro-benzyl)-4-[3-(4-chloro-benzyl)-[1,2,4]oxadiazol-5-yl]-piperazine]",2
5,"Cc1cccc(CN2CCN(c3nc(CCC(F)(F)F)no3)CC2)n1 [Cmpd182, 5-(4-((6-Methylpyridin-2-yl)methyl)piperazin-1-yl)-3-(3,3,3-trifluoropropyl)-1,2,4-oxadiazole]",282
6,"Clc1cccc(-c2noc(N3CCN(Cc4ccccc4Cl)CC3)n2)c1 [Cmpd027, 5-(4-(2-Chlorobenzyl)piperazin-1-yl)-3-(3-chlorophenyl)-1,2,4-oxadiazole]",74
7,"Fc1cccc(-c2noc(N3CCN(Cc4ccccc4Cl)CC3)n2)c1 [Cmpd029, 5-(4-(2-Chlorobenzyl)piperazin-1-yl)-3-(3-fluorophenyl)-1,2,4-oxadiazole]",97
8,"COc1cccc(CCN2CCN(c3nc(CC(F)(F)F)no3)CC2)c1 [Cmpd163, 5-(4-(3-Methoxyphenethyl)piperazin-1-yl)-3-(2,2,2-trifluoroethyl)-1,2,4-oxadiazole]",418
9,"COc1cc(CCN2CCN(c3nc(-c4ccc(Cl)cc4)no3)CC2)ccn1 [Cmpd023, 3-(4-Chlorophenyl)-5-(4-(2-(2-methoxypyridin-4-yl)ethyl)piperazin-1-yl)-1,2,4-oxadiazole]",18
10,"Fc1ccc(Cc2noc(N3CCN(Cc4ccc(Cl)cc4)CC3)n2)cc1F [Cmpd097, 1-(4-Chloro-benzyl)-4-[3-(3,4-difluoro-benzyl)-[1,2,4]oxadiazol-5-yl]-piperazine]",486
11,"C1CN(CCN2CCN(c3nc(C4C[C@@H]5CC[C@H]4C5)no3)CC2)CCO1 (stereo partly drawn) [Cmpd188, 4-(2-(4-(3-((1S,4R)-bicyclo[2.2.1]heptan-2-yl)-1,2,4-oxadiazol-5-yl)piperazin-1-yl)ethyl)morpholine]",4
12,"FC(F)(F)CCc1noc(N2CCN(Cc3ccccc3Cl)CC2)n1 [Cmpd177, 5-(4-(2-Chlorobenzyl)piperazin-1-yl)-3-(3,3,3-trifluoropropyl)-1,2,4-oxadiazole]",172
13,"Cc1ccc(CN2CCN(c3nc(C4(c5ccccc5)CC4)no3)CC2)cc1 [Cmpd130, 5-(4-(4-Methylbenzyl)piperazin-1-yl)-3-(1-phenylcyclopropyl)-1,2,4-oxadiazole]",185
14,"CC(C)CCN1CCN(c2nc(-c3ccccc3)no2)CC1 [Cmpd006, 5-(4-Isopentylpiperazin-1-yl)-3-phenyl-1,2,4-oxadiazole]",8
15,"FC(F)(F)c1ccc(-c2noc(N3CCN(CCc4ccc(Cl)cc4)CC3)n2)cc1 [Cmpd183, 1-[2-(4-Chloro-phenyl)-ethyl]-4-[3-(4-trifluoromethyl-phenyl)-[1,2,4]oxadiazol-5-yl]-piperazine]",57
16,"COc1ccc(CCN2CCN(c3nc(Cc4ccc(Cl)cc4)no3)CC2)cn1 [Cmpd060, 1-[3-(4-Chloro-benzyl)-[1,2,4]oxadiazol-5-yl]-4-[2-(6-methoxy-pyridin-3-yl)-ethyl]-piperazine]",74
